Measurements: US6395740B1, “Calcitonin mimetics” (ZymoGenetics, Inc., priority 1997, dated 2002)
Converted amounts (≈) assume the structure as drawn.

Tests used:
[1] = biological target: T1, human calcitonin receptor (Homo sapiens, UniProt P30988); test: CRE-luciferase assay for calcitonin mimetic activity; assay type: cell-based
T1 construct: expressed in transfected cells; host or cells: BHK (baby hamster kidney) cells, line Hollex-2 (Hollex 1 in the general description)
T1 sequence (P30988 25-474): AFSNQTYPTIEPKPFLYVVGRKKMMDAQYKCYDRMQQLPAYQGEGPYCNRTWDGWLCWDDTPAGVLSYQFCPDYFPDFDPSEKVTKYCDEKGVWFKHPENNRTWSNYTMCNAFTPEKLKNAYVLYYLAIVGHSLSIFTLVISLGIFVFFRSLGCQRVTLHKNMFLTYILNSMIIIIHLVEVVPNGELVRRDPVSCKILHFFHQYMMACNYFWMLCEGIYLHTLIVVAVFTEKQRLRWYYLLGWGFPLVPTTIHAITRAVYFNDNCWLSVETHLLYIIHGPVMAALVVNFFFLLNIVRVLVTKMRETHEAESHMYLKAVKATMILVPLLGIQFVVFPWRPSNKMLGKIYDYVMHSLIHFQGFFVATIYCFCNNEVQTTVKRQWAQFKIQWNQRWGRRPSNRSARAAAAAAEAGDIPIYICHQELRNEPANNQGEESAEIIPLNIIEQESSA
Text: An alternative assay system (described in WO96/31536 which is incorporated herein in its entirety) involves selection of substances that are able to induce expression of a cyclic AMP response element (CRE)-luciferase reporter gene, as a consequence of elevated cAMP levels, in cells expressing a calcitonin receptor, but not in cells lacking calcitonin receptor expression. Such cells could include, for example, Boris/KS10-3 (expressing hamster calcitonin receptor and a CRE-luciferase reporter gene in baby hamster kidney cells (BHK 570 cells)) or Hollex 1 (expressing human calcitonin receptor and a CRE-luciferase reporter gene in BHK cells, as described in WO96/31536) or KZ10-20-48/pLJ6-4-25, which expresses the human glucagon receptor and a CRE-luciferase reporter gene in BHK cells. The human glucagon receptor is another member of the G-protein-coupled receptor family that transduces signal through adenylate cyclase-mediated elevation of cAMP.
This CRE-luciferase assay measures the end result of a multi-step signal transduction pathway triggered when a calcitonin mimetic stimulates the G-coupled calcitonin receptor. The complexity of this pathway provides multiple mechanisms for induction of luciferase transcription at points that are downstream of the calcitonin receptor, and therefore may not be calcitonin receptor-specific (e.g., forskolin's direct activation of adenylate cyclase). Any response triggered by non-specific inducers is eliminated by counter screening using the calcitonin receptor-negative cell lines described above.
Receptor-positive and -negative cell lines were maintained by serial passage in growth medium (DMEM supplemented with 10% heat-inactivated fetal calf serum (HI-FCS), 2 mM L-glutamine, 1 mM sodium pyruvate, 250 nM MTX, and 1 mg/mL G418). On the day prior to assay, cells were trypsinized, adjusted to 2×10^5 cells/mL in growth medium, plated in opaque white Dynatech Microlite microtiter tissue culture plates at 100 μL/well (2×10^4 cells), and grown overnight to confluence (37° C., 5% CO2 atmosphere)
Test substances were prepared in DMSO at 100 times the final desired assay concentration. Induction was initiated by adding 100 μL/well test substance diluted 1:100 or 1:1000 (only first round screening extracts were diluted 1:100) in assay medium (DMEM supplemented with 10% HI-FCS, 2 mM L-glutamine, 1 mM sodium pyruvate and 20 mM Hepes, pH 7.25). Controls were included on each plate: untreated wells (basal), […] forskolin, and 100 nM human calcitonin. For test substances prepared in DMSO, an equal concentration of DMSO was included in control wells (not to exceed a final assay concentration of 2% DMSO, with a preferred maximum of 1%). Plates were incubated for 3 to 8 hours (4 hours preferred) at 37° C. in an atmosphere of 5% CO2.
Following induction, luciferase activity was measured using a Promega luciferase assay kit (E1500) according to the assay kit protocol. Briefly, assay medium was removed and cells were washed once with phosphate buffered saline (PBS). After the wash, 25 μL of lysis buffer was added to each well, and the plates were incubated for 15 minutes at room temperature. Fifty microliters of Luciferase Assay Substrate (Promega, Corp.) was added to each well and the plates were transferred to a Labsystems Lumiscan microtiter luminometer. The amount of luminescence (relative light units, RLU) was determined by “Fastscan” following a 0.1 second/well integration of signal. Basal (uninduced) luciferase signal was subtracted from all measurements, and the luciferase signal induced by test samples was expressed as a percentage of the signal in the calcitonin and forskolin controls. […]

[2] = tested on: PTH-induced bone resorption in mouse calvariae; test: Calvarial assay: inhibition of PTH-induced bone resorption (calcium release); assay type: cell-based; settings: 1 nM PTH 1-34, 72 hours, read-out: Release of PTH Induced Ca++ IC50
Experimental: Calvaria from 4-day old neonatal CD-1 mice (pregnant mice received from Charles River Laboratories, Wilmington, Mass.) were trimmed with fine-tipped scissors to leave the parietal regions, including the sagittal suture. These trimmed bones were placed singly per well into 6-well cell culture cluster plates (Costar, Pleasanton, Calif.) with 1 mL/well of growth medium (DMEM, BioWhittaker, Walkersville, Md.) with 4.5 g/L glucose, 0.29 mg/mL L-glutamine, 1 mM sodium pyruvate, 15% heat-inactivated horse serum, and antibiotics (penicillin-G 50 μg/mL, streptomycin 50 μg/mL, and neomycin 100 μg/mL), and rocked gently (RedRocker™, model PR50-115V, Hoefer, San Francisco, Calif.) at 37° C. in a 5% CO2 humidified incubator for 24 hours preincubation.
Following preincubation, medium was removed and replaced with 1.5 mL/well of growth medium containing 1 nM parathyroid hormone (PTH) 1-34 (Sigma) to stimulate bone resorption. For evaluation of the ability of calcitonin mimetics to inhibit PTH induced bone resorption, mimetic compounds in DMSO were added to the growth medium at concentrations ranging from 1-400 μg/mL (final assay concentration of DMSO less than or equal to […]). In each exierimerec human calcitonin (0.02-20 nM, 0.2-2 nM preferred) was added to PTH treated bones as a positive control. […] All control wells contained a final assay concentration of DMSO equal to that present in calcitonin mimetic treated wells.
Five bones were included in each sample group. Bones were incubated for 72 hours following PTH addition to allow resorption of bone to occur. Observations were made of the general appearance, healthiness and number of cells that migrate from the calvaria during the incubation as a possible indication of possible toxicity. Calvaria to be examined histologically were transferred to glass scintillation vials containing 10 mL of 10% neutral buffered formalin. The medium was removed from the wells, and total calcium measurements were made using a Nova 7/7+7 Electrolyte Analyzer (Nova Biomedical, Waltham, Mass.) according to the manufacturer's specifications. Induction of bone resorption by PTH is seen as an increase in the concentration of calcium in the growth medium due to degradation of the bone matrix.

[3] = rats, evaluated by pQCT or histomorphometry; cited from earlier work

Compound	EC50 [1] [µM]	IC50 [2] [µg/mL]	bone loss associated with combined ovariectomy and immobilization [3]	melting point [°C]
COc1ccc(CN2CCN(Cc3cc(I)c(O)c(OC)c3)CC2)cc1C [Compound 850-0293]	51.8 to 104	25 to 50 (≈ 51.8 to 104 µM)	–	–
COc1cc(CN2CCN(Cc3cc(Br)cc(Br)c3O)CC2)cc(OC)c1OC [Compound 850-1085]	66.9	20 (≈ 37.7 µM)	–	–
calcitonin	–	–	very effective at reducing bone loss	–
COc1cc(CN2CCN(C(=O)Nc3cccc(C(F)(F)F)c3)CC2)cc(OC)c1OC [Compound 850-0277]	–	50 (≈ 110 µM)	–	79 to 82
COc1cc(CN2CCN(Cc3cc(Br)ccc3O)CC2)cc(Br)c1O [Compound 850-2346]	206	25 (≈ 51.4 µM)	–	–
COc1cc(CN2CCN(Cc3ccc(OC)c(OC)c3OC)CC2)cc(I)c1O [Compound 850-0221]	291	–	–	–
COc1cc(CN2CCN(C(=O)Nc3cccc(C(F)(F)F)c3)CC2)cc(O)c1OC [Compound 50-2013]	43.2	15 (≈ 34.1 µM)	–	–
